Data on one molecule can be found in EPA's ToxValDB 9.5 (doi:10.2903/j.efsa.2010.1682).

The subject of one data set is Cucumis sativus. Particulars: not reported; seedling emergence.
A further data set has as its system Bibionidae. The following applies: chronic/long-term.
The next data set has as its system Daphnia magna. Particulars: chronic/long-term; duration: 21 days; reproduction.
For another data set, the system named is Canidae. Particulars: oral, Dog Other, organ weight.
In the next data set the test system is Apis mellifera. The following applies: acute, duration: 72 hours, mortality.
For the next data set, the system named is Allium cepa. Particulars: not reported; seedling emergence.
A further data set deals with Typhlodromus pyri. The following applies: not reported.

In brackets after ≈: the same amount, converted by molar mass.

Broadly, the NOAEL is the highest tested level that showed no adverse finding.

`CCCCC(C#N)(Cn1cncn1)c1ccc(Cl)cc1` (centres undefined) [Myclobutanil]: the LD50 in the data set on Rattus norvegicus (acute, oral, M, mortality) is 1600 mg/kg-day; with Apis mellifera (dermal), > 39.6 µg/piece; in the data set on Apis mellifera (oral, unspecified), > 33.9 µg/piece; with Colinus virginianus (acute, oral, mortality) it was 510 mg/kg-day. In addition, the NOAEL in the data set with Rattus norvegicus (chronic, duration: 2 years, histopathology: nonneoplastic) was determined as 2.5 mg/kg-day; with Rattus norvegicus (developmental, development), 31 mg/kg-day; in the data set with Canidae (chronic, duration: 1 years) it was 3.09 mg/kg-day; with Canidae (subchronic, duration: 90 days), 3.09 mg/kg-day. For the same molecule, the NOEL with Rattus norvegicus (reproduction developmental, reproduction) was determined as 16 mg/kg-day. The LEL stood at 300 g/ha in the data set on Cucumis sativus, 300 g/ha in the data set on Allium cepa, 36 g/ha in the data set with Typhlodromus pyri (mortality) and 36 g/ha in the data set with Typhlodromus pyri (reproduction). Besides, the NOEC in the data set on Bibionidae was 6.07 mg/kg; in the data set on Bibionidae (duration: 30 days) it was 4.98 mg/L; in the data set on Daphnia magna, 1 mg/L; in the data set with Oncorhynchus mykiss (chronic/long-term, duration: 21 days, growth) it was 0.2 mg/L; in the data set on Anas platyrhynchos (reproductive), 31.6 mg/kg-day; with Tagia sp. (chronic/long-term) it was 10.3 mg/kg. The molecule also returned an NOEC with Colinus virginianus (reproduction developmental) of 24.2 mg/kg-day. Besides, the LC50 was 2 µg/mL (≈ 6.93 µM) in the data set with Oncorhynchus mykiss (acute, duration: 96 hours, mortality); > 1540 mg/kg-day with Anas platyrhynchos (short-term, oral, feed, mortality); 250 mg/kg in the data set with Tagia sp. (acute, mortality); > 567 mg/kg-day in the data set with Colinus virginianus (acute, oral, diet, mortality).
